According to PMC12673082 (Nature Communications, 2025):
Numbering of substitutions follows the chain as printed. Several values for one entry are separate records, joined by “and”; a condition that tells them apart may be missing. Equal values may be shown once.

Assays:
hP2X7 = target: T1, hP2X7 (Homo sapiens, UniProt Q99572); test: Whole-cell patch clamp, ATP-evoked current, transfected HEK293; type: cell-based
T1 sequence (Q99572 1-595): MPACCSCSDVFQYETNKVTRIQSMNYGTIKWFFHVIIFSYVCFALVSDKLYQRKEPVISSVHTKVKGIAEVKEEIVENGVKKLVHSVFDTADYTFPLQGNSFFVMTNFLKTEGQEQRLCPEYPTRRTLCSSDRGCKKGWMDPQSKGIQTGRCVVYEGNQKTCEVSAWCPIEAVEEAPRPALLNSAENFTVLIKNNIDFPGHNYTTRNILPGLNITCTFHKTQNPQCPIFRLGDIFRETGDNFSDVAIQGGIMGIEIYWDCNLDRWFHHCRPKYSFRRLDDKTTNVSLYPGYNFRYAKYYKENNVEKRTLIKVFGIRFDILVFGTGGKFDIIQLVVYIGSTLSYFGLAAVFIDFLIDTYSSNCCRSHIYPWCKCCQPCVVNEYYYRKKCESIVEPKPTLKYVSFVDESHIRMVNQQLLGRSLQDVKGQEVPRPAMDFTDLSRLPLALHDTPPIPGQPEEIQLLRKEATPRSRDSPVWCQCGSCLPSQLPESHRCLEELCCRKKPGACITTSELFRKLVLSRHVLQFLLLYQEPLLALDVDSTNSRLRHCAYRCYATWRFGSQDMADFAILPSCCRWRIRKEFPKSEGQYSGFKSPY

mP2X7 = target: T2, mP2X7 (Mus musculus, UniProt Q9Z1M0); test: as above; type: cell-based; conditions: HEK293, read-out: inhibition rate
T2 sequence (Q9Z1M0 1-595): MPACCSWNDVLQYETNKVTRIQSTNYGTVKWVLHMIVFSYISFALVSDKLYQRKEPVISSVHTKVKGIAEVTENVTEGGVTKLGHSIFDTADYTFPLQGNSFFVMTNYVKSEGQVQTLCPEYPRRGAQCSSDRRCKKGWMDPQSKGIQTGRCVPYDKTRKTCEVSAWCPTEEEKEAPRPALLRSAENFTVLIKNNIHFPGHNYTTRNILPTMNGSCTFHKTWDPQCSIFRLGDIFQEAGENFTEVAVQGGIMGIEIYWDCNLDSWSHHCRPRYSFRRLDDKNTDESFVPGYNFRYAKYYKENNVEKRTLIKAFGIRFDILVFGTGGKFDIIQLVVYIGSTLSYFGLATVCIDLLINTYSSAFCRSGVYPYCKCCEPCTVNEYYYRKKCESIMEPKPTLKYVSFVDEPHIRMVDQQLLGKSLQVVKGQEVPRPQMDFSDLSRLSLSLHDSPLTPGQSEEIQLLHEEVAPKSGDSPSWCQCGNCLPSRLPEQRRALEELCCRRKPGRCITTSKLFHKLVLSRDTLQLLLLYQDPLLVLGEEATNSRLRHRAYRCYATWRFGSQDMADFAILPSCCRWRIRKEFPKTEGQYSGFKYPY

hP2X2 = hP2X2 (Homo sapiens, UniProt Q9UBL9); test: as above; type: cell-based; conditions: HEK293, read-out: inhibition rate
hP2X2, sequence (Q9UBL9 whole entry): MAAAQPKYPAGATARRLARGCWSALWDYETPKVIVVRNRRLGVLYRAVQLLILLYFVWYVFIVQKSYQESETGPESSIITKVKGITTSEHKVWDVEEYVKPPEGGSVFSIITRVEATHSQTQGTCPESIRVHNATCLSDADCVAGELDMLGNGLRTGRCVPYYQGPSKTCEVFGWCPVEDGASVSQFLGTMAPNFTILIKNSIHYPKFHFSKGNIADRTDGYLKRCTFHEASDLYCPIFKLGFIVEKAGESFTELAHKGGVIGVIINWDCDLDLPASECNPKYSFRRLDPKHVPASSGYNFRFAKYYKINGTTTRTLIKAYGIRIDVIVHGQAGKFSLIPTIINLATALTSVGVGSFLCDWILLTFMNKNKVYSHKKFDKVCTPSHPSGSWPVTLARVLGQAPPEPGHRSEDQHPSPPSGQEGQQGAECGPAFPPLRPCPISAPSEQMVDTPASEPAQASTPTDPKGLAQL

mP2X7 A312V = target: T3, mP2X7 A312V (Mus musculus, UniProt Q9Z1M0, A312V); test: Whole-cell patch clamp, mP2X7 mutant; type: cell-based
T3 sequence (Q9Z1M0 1-595 A312V): T2 sequence (Q9Z1M0 1-595) with A312V

mP2X7 Y108F/A312V = mP2X7 Y108F/A312V (Mus musculus, UniProt Q9Z1M0, A312V/Y108F); test: Whole-cell patch clamp, mP2X7 mutant; type: cell-based; conditions: 1 μM
mP2X7 Y108F/A312V, sequence (Q9Z1M0 whole entry Y108F/A312V): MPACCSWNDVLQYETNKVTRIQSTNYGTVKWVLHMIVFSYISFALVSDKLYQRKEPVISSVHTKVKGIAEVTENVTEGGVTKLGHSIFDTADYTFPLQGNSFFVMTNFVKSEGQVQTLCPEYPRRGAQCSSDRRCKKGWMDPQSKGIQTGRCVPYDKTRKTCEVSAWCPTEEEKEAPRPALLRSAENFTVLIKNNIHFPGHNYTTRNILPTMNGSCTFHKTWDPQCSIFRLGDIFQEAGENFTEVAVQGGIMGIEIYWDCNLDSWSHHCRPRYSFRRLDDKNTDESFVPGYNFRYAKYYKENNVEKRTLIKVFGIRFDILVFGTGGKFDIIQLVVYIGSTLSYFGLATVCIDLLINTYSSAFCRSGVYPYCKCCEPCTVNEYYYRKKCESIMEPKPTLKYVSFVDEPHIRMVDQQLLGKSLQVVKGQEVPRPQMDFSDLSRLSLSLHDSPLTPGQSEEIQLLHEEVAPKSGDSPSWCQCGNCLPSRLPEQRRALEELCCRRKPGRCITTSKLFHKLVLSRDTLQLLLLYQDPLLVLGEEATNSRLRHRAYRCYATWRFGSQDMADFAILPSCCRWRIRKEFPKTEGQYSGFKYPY

pdP2X7 Y295A = test: Whole-cell patch clamp, pdP2X7 mutant; type: cell-based, giant panda; conditions: pd7Y295A, 30 μM
pdP2X7 F88A = pdP2X7 F88A (Ailuropoda melanoleuca, UniProt G1M6C4, F89A); conditions: pd7 F88A, 10 μM
pdP2X7 F88A, sequence (G1M6C4 2-595 F89A): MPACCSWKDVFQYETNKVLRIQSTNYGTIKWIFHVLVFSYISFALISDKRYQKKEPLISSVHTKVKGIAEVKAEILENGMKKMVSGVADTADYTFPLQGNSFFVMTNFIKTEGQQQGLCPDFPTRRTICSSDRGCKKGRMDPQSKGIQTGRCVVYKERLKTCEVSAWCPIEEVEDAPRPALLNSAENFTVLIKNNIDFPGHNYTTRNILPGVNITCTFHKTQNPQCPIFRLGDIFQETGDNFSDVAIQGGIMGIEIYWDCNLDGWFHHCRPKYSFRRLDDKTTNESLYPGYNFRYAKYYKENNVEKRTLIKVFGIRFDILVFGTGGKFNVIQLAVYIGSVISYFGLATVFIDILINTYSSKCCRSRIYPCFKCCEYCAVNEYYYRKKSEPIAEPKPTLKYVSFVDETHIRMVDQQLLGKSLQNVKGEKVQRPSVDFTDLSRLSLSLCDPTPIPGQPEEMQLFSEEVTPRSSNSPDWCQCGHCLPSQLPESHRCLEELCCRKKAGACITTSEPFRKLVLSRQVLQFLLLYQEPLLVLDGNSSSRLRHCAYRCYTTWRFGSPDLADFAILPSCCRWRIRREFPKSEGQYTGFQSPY

pdP2X7 F95A = pdP2X7 F95A (Ailuropoda melanoleuca, UniProt G1M6C4, F96A); conditions: pd7 F95A, 10 μM
pdP2X7 F95A, sequence (G1M6C4 2-595 F96A): as the sequence (G1M6C4 2-595 F89A) above, with A88F, F95A counted along it

pdP2X7 P96G = pdP2X7 P96G (Ailuropoda melanoleuca, UniProt G1M6C4, P97G); conditions: pd7 P96G, 10 μM
pdP2X7 P96G, sequence (G1M6C4 2-595 P97G): as the sequence (G1M6C4 2-595 F89A) above, with A88F, P96G counted along it

pdP2X7 M105F = pdP2X7 M105F (Ailuropoda melanoleuca, UniProt G1M6C4, M106F); test: cell-based
pdP2X7 M105F, sequence (G1M6C4 2-595 M106F): as the sequence (G1M6C4 2-595 F89A) above, with A88F, M105F counted along it

pdP2X7 E305F = pdP2X7 E305F (Ailuropoda melanoleuca, UniProt G1M6C4, E306F); test: cell-based
pdP2X7 E305F, sequence (G1M6C4 2-595 E306F): as the sequence (G1M6C4 2-595 F89A) above, with A88F, E305F counted along it

In the case of `C=CC[C@@H]1c2ccc(OC)c(OC)c2CN2CCc3cc4c(cc3[C@H]12)OCO4` [PSFL1191, (13R,13aS)-13-allyl-9,10-dimethoxy-5,8,13,13a-tetrahydro-6H-1,3dioxolo[4,5-g]isoquinolino[3,2-a]isoquinoline], the IC50 (hP2X7) is reported as 248 ± 17 nM, the “fold difference in affinity for hP2X7 between PSFL1191 and PSFL1190” value (hP2X7) is reported as ~50 fold and > 50 fold and the inhibition at 30 µM (mP2X7) is reported as 13.3 ± 3.04%. For the same molecule, the inhibition at 30 µM (hP2X2) was 3.09 ± 7.46%, the IC50 (mP2X7 A312V) was 908 ± 26 nM and the “fold increase of inhibition compared to m7WT” value (mP2X7 A312V; mP2X7 A312V, 1 μM) was ~ 21 fold and 21 fold. For the same molecule, the “fold increase of inhibition compared to m7WT” value (mP2X7 Y108F/A312V) was about 26 fold, the inhibition rate (pdP2X7 Y295A) was at most 50% and the “inhibitory effect on ATP (1 mM)-induced activation (inhibition ratio)” value (shortened to “inhibitory effect on ATP … (inhibition ratio)”) (pdP2X7 F88A) was “significantly attenuated”. For the same molecule, the “inhibitory effect on ATP … (inhibition ratio)” value (pdP2X7 F95A) was “did not”, the “inhibitory effect on ATP … (inhibition ratio)” value (pdP2X7 P96G) was “significantly attenuated” and the IC50 (pdP2X7 M105F) was 2060 nM. For the same molecule, the IC50 (pdP2X7 E305F) was 1570 ± 360 nM.
